# Tests used:
# [1] = Gravimetric vapour sorption (GVS) analysis; assay type: physicochemical; conditions: 25° C., mass change between 20% and 80% RH in first adsorption scan; mass change larger then 0.2% and smaller then 2%
# Protocol: Gravimetric Vapour Sorption (GVS) Analysis
# Measurements were performed on a multi sample instrument SPS-100n (Projekt Messtechnik, Ulm, Germany) operated in stepping mode at 25° C. The sample was allowed to equilibrate at 40% RH before starting a pre-defined humidity program (40-0-95-0-95-40% RH, steps of 5% ΔRH and with a maximal equilibration time of 24 hours per step were applied. About 20 to 30 mg of each sample was used. The hygroscopic classification is done according to the European Pharmacopeia Technical Guide (1999, page 86), e.g., slightly hygroscopic: increase in mass is less than 2% and equal to or greater than 0.2% mass/mass; hygroscopic: increase in mass is less than 15% and equal to or greater than 2% mass/mass. The mass change between 20% relative humidity and 80% relative humidity in the first adsorption scan is considered.
# [2] = system: eosinophils (PGD2-induced shape change); assay: Eosinophil shape change assay with human plasma; assay type: cell-based; conditions: 50% human plasma, PGD2 100 nM activation, read-out: Antagonistic activity IC50
# Protocol: Eosinophil Shape Change Assay with Human Plasma After obtaining informed consent, blood samples were drawn by venipuncture according to the protocol approved by the ethics committee of Basel, Switzerland. Polymorphonuclear leukocytes (containing eosinophils, basophils and neutrophils) were isolated using the Polymorphprep™ method (Axis-Shield). In brief, anticoagulated whole blood was layered onto a Polymorphprep gradient (density 1.113 g/ml) and centrifuged at 500 g for 30 min. The polymorphonuclear cell fraction was harvested and depleted for erythrocytes by hypotonic saline lysis. […]
# Immediately after fixation with paraformaldehyde, the samples were analyzed by FACSCanto flow cytometer (BD Biosciences) and target cells were identified by their forward-scatter (FSC) and side-scatter (SSC) characteristics. […] Shape change responses, indicative of eosinophil activation, were quantified as the percent of cells with an increased forward-scatter.
# [3] = system: primary cultured rat hepatocytes; assay: In vitro cytotoxicity in primary cultured rat hepatocytes; assay type: cell-based; conditions: for NoEC (no effect concentration) / LCC (lowest cytotoxic concentration): 24 h treatment, highest test concentration 300 μM; for NoEC (no effect concentration): morphology and LDH leakage; for LCC (lowest cytotoxic concentration): morphology grading ≥2 or ≥2-fold increase in LDH leakage
# Excerpt: In Vitro Cytotoxicity in Primary Cultured Rat Hepatocytes
# Adult male Wistar rats were narcotized with sodium pentobarbital and hepatocytes were isolated according to a standard procedure, i.e. by in situ perfusion of the liver with a collagenase solution. The viability of the purified hepatocytes, checked by the trypan blue dye exclusion method was greater than 85%. The isolated hepatocytes were resuspended in standard Williams Medium E, without phenol red, supplemented (WME supp.) with transferrin (100 μg/ml), triiodothyronine (10 μg/ml), gentamicin (50 μg/ml), hydrocortison hemisuccinate (13.36 μg/ml), glucagon (5 μg/ml), HEPES (10 mM), inosin (10 μg/ml), insulin (10 μg/ml), streptomycin (100 μg/ml) and penicillin (100 U/ml) and 10% fetal bovine serum (FBS). The cells were plated in collagen-coated 24-well plates at an initial density of 2×10^5 cells/well. After 4 h for attachment to the culture-plates, the medium was aspirated and replaced by fresh WME supp. without FBS containing the test compounds and incubated for 24 h at 37° C. in a […] and 5% CO2 atmosphere. For each experiment, i.e., with each batch of hepatocytes, treatments with the test compounds were done in quadriplicate. Quadriplicate controls (treatment with the vehicle only) were also present on each culture plate.
# Stock solutions of the test compounds were prepared in DMSO a few hours before treatment start. Appropriate dilutions of these stock solutions were added to the culture media just prior to the treatment in order to give final concentrations of 0, 3, 10, 30, 100 and 300 μM. The final concentration of the vehicle DMSO was 1% (v/v).
# The morphology of the hepatocyte monolayers was monitored by light microscopy after 24 hours of exposure to the test compounds. Treatment related effects are described according to the following grading: • 0 No morphological alterations observed upon treatment when compared to the control cultures • 1-3 Treatment resulting in any morphological changes, e.g. intracellular granulation, vacuolization or cell death. Depending on the severity, these changes were regarded as slight (1), moderate (2) or strong (3). • K Treatment resulting in 100% dead cells and/or the complete detachment of the monolayer yielding a clear cell-free dish.
# After 24 h treatment of the hepatocyte cultures, aliquots of culture medium were carefully collected and used for the analysis of lactate dehydrogenase (LDH) activity by spectrophotometry using the LDH cytotoxicity detection kit from Clontech (cat No. 630117, Mountain View, Calif., USA). For each experiment, additional cultures were used for the determination of total intracellular LDH activity at treatment start. For this purpose, 4 wells of cell culture per experiment were washed with cold saline before treatment start, sonicated in fresh medium and the homogenate was analyzed for total LDH activity. Enzyme activities in the culture media were assessed and expressed as percentage of the total activity present in the cultured hepatocytes at the beginning of the treatments.
# The lowest cytotoxic concentration (LCC) and the no effect concentration (NoEC) are given for each compound, based on cell morphology and LDH leakage after 24 h treatment. LCC is defined as the lowest concentration of the test compound leading to a clear effect on the cultured rat hepatocytes (morphology grading ≥2 or ≥2-fold increase in LDH leakage). […]
Compound,Hygroscopicity [1],IC50 [2] [nM],NoEC (no effect concentration) [3] [µM],LCC (lowest cytotoxic concentration) [3] [µM],properties in in-vitro cytotoxicity assay (in words) ([3]; summary statement)
"CN(c1ncc(Cl)cn1)[C@H]1CCc2c(c3nc(F)ccc3n2CC(=O)O)C1 [COMPOUND in crystalline form 1, (S)-2-(8-((5-chloropyrimidin-2-yl)(methyl)amino)-2-fluoro-6,7,8,9-tetrahydro-5H-pyrido[3,2-b]indol-5-yl)acetic acid]",Slightly hygroscopic (mass change larger,,,,
"CN(c1ncc(Cl)cn1)[C@H]1CCc2c(c3nc(F)ccc3n2CC(=O)O)C1 [COMPOUND, (S)-2-(8-((5-chloropyrimidin-2-yl)(methyl)amino)-2-fluoro-6,7,8,9-tetrahydro-5H-pyrido[3,2-b]indol-5-yl)acetic acid]",,3.1,>300,>300,significantly improved properties
"CN(c1ncc(Cl)cn1)[C@H]1CCc2c(c3cc(F)ccc3n2CC(=O)O)C1 [example 9 from WO 2011/117798, reference compound]",,,30,300,

# Reference: patent US10351560B2, “Crystalline forms” (IDORSIA PHARMACEUTICALS LTD, priority 2015, dated 2019)
